Data published in patent US9012439B2, “Use of electrophilic compounds for inducing platelet production or maintaining platelet function” (University of Rochester, priority 2007, dated 2015).

Experiments:
[1] = test system: Meg-01 cells; test: Reactive oxygen species production in Meg-01 cells (carboxy-H2DCFDA, MitoSOX Red); assay type: cell-based, human; conditions: Meg-01 cells, 1 h and 6 h; for change in percentage of cells generating mitochondrial superoxide (MitoSOX Red): 10 μM
Experimental: Ten μM carboxy-H2DCFDA was added to cells for 20 min at RT. The cells were washed and immediately analyzed by flow cytometry. Five μM of MitoSOX Red dye in HBSS containing Mg^2+ and Ca^2+ was added to the cells for 15 min at 37° C. The cells were washed in HBSS and analyzed by flow cytometry.

[2] = molecular target: T1, PPARγ (Homo sapiens, UniProt P37231); test: PPARγ gene reporter analysis (PPRE-luciferase) in Meg-01 cells; assay type: cell-based; conditions: 10 μM, 24 h after ligand treatment
T1 construct: Meg-01 cells were plated at a density of […] cells per well in a E-well plate and transfected; endogenous in cells; host or cells: Meg-01 cells
T1 sequence (P37231 1-505): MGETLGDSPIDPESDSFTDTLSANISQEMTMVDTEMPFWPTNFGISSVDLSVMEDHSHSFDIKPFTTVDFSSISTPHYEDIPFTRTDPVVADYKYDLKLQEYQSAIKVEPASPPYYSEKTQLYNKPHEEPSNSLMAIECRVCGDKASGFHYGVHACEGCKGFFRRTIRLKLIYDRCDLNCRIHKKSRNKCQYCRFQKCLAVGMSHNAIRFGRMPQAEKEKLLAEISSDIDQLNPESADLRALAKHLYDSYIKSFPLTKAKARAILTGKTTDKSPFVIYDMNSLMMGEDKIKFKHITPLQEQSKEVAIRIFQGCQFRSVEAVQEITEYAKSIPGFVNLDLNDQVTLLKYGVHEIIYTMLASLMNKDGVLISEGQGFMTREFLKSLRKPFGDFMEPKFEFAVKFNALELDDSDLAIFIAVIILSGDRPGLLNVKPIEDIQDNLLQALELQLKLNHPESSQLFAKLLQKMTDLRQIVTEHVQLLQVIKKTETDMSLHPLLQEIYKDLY
Experimental: Meg-01 cells were plated at a density of […] cells per well in a […] and transfected, using lipofectamine LTX (Invitrogen), with a PPRE (Peroxisome Proliferator Response Element)-luciferase reporter plasmid containing three copies of the ACO-PPRE (a gift from Dr. B. Seed, Massachusetts General Hospital, Boston, Mass.). […] Transfection efficiency was determined by transfecting the cells with green fluorescent protein (GFP) plasmid and determining the percentage of cells that were GFP+ by flow cytometry. […] Luciferase activity was assessed 24 h after ligand treatment using the Promega Luciferase Assay System, and relative light units (RLU) were determined using a Lumicount Microplate Luminometer (Packard Instrument Co., Meriden, Conn.).

[3] = test system: Meg-01 cells; test: Platelet production from Meg-01 cells (flow cytometry); assay type: cell-based, human; conditions: Meg-01 cells, 10 μM, 24 h
Experimental: Meg-01 and M07e cells were purchased from the American Type Culture Collection (Rockville, Md.) and Dami cells were a generous gift from Dr. Patricia J. Simpson-Haidaris (University of Rochester). All cells were cultured in RPMI-1640 tissue culture medium (Invitrogen) supplemented with 5% fetal bovine serum (FBS; Invitrogen), 10 mM HEPES (N-2-hydroxyethylpiperazine-N′-2-ethanesulfonic acid; Sigma), 2 mM L-glutamine (Invitrogen), 4.5 g/L glucose (Invitrogen), and 50 μg/mL gentamicin (Invitrogen). M07e cells were also supplemented with 100 ng/mL of granulocyte monocyte-colony stimulating factor (GM-CSF, R&D Systems). All treatments were performed in normal growth media. Dimethyl sulfoxide (DMSO) was used as a vehicle (control) in the experiments described below.
Platelets were isolated from megakaryocytes by centrifugation at 150 xg for 10 min. Supernatants underwent sequential centrifugation (500 xg for 10 min and 1000×g for 10 min). The remaining platelet pellet was fixed then permeabilized with a CD61 or CD41 antibody. 7-AAD (BD Pharmingen) was added for 10 min before analyzing the cells by flow cytometry. Platelets were identified using three well-described parameters (Patel et al., “The Biogenesis of Platelets from Megakaryocyte Proplatelets,” J Clin Invest 115:3348-3354 (2005); Breton-Gorius et al., “Expression of Platelet Proteins During the In Vitro and In Vivo Differentiation of Megakaryocytes and Morphological Aspects of Their Maturation,” Semin Hematol 23:43-67 (1986); Ogura et al., “Establishment of a Novel Human Megakaryoblastic Leukemia Cell Line, MEG-01, With Positive Philadelphia Chromosome,” Blood 66:1384-1392 (1985) and Franks et al., “A Fluorescence Microscopy Method for Quantifying Levels of Prostaglandin Endoperoxide H Synthase-1 and CD-41 in MEG-01 Cells,” Biol Proced Online 3:54-63 (2001), each of which is hereby incorporated by reference in its entirety), size (using normal human platelets as a control), presence of CD61 or CD41 and lack of DNA as determined by the absence of 7-AAD staining Ten thousand platelet events were collected and platelets were quantified by rate (platelet events/second) (Chung et al., “Platelet Activation in Acute, Decompensated Congestive Heart Failure,” Thromb Res 120:709-713 (2007), which is hereby incorporated by reference in its entirety.
A 19 by target sequence was selected to knock down PPARγ. PPARγ was cloned downstream of the RNA polymerase III U6 promoter and subcloned into a FG12 lentiviral vector which expresses green fluorescent protein (GFP) under the Ubiquitin C promoter. HEK 293 cells expressing this siRNA PPARγ had reduced PPARγ protein levels. To make the lentivirus, HEK 293 cells were co-transfected with 3 plasmids: the envelope vector (CMV-VSVG), the transfer vector (FG12-shRNAPPAR), and the packaging construct (pCMVΔ89.2 (gag/pol proteins)). Viral supernatants were collected every 8 h for 2 days and concentrated by ultracentrifugation at 50,000×g for 2 h at 4° C. using a Beckman SW 28 rotor. Viral titers were determined by infection of HeLa cells with serial dilutions of the viral stocks. Meg-01 cells were infected at a multiplicity of infection (MOI) of 20. After 48 h, approximately 56% of the PPARγ siRNA cells were transduced as determined by flow cytometry. The GFP positive (+) cells were then sorted by FACS and grown in RPMI with 5% FBS.

[4] = test system: C57BL/6 mice; test: Circulating platelet number in unirradiated mice; assay type: in vivo, mouse (C57BL/6); conditions: unirradiated C57BL/6 mice, 1 mg/kg IV four consecutive days, d 4
Experimental: (§1) Seven or 8-week-old male C57BL/6 mice (Jackson Laboratories) were either exposed to 5 Gy cesium (Cs^137) total body irradiation (TBI) using a Model 8114 6000 Curie Shepherd Cs^137 irradiator (approximately 3200 Curie sealed Cs^137 source) with a dose rate of […] or left unexposed. Mice (n=4) received intravenous injections of vehicle (8% DMSO) or 15d-PGJ2 (1 mg/kg) or CDDO-Me (250 μg/kg) for 4 consecutive days from day 1 (days 1, 2, 3 and 4 post-irradiation). Blood was obtained from the aorta or the orbital sinus. Platelets were counted prior to radiation exposure and after radiation exposure on day 10, day 22, and day 31 in Example 7, or days 4, 10, 16, and 21 in Example 9 using the Heska® CBC-Diff™ Veterinary Analyzer (Fort Collins, Colo.). Data are expressed as average platelet counts from two separate experiments. For the unirradiated mice, platelets were counted on day 4, day 10, and day 15 in Example 7 or on the same days in Example 9.

[5] = test system: mouse megakaryocyte progenitors (Meg-CFC); test: Megakaryocyte progenitor (Meg-CFC) assay on bone marrow of treated mice; assay type: in vivo
Experimental: Primary mouse bone marrow cells were suspended in IMDM at a concentration of 8×10^6 cells/mL. Two-hundred thousand cells were plated in IMDM supplemented with 20% BIT9500, 0.2% 2-mercaptoethanol, 2% Glutamax, and 20% Cellgro-H20 (Mediatech, Herndon, Va.) and cultured with rhTPO (50 ng/mL), IL-3 (10 ng/mL) (Preprotech, Rocky Hill, N.J.), IL-6 (20 ng/mL) (Preprotech), IL-11 (Preprotech) (50 ng/mL), and collagen at 37° for 7 days (Tober et al., “The Megakaryocyte Lineage Originates from Hemangioblast Precursors and is an Integral Component Both of Primitive and of Definitive Hematopoiesis,” Blood 109:1433-1441 (2007), which is hereby incorporated by reference in its entirety). Collagen gels were dehydrated, fixed, and labeled with GPIbβ and GPV, modified by ABC (Vector Labs, Burlingame, Calif.), and developed in Vector Red (Vector Labs). Meg-CFC were defined by their ability to generate colonies containing at least three megakaryocytes.

[6] = test system: C57BL/6 mice; test: Irradiation-induced thrombocytopenia (5 Gy total body irradiation); assay type: in vivo, mouse (C57BL/6); conditions: 5 Gy
Experimental: as §1

[7] = test system: primary mouse megakaryocytes; test: DNA content analysis of primary mouse megakaryocytes; assay type: cell-based; conditions: by 24 h
Experimental: Bone marrow was isolated from the femora of male C57BL/6 mice (Jackson Laboratories, Bar Harbor, Me.) and plated at a concentration of 1×10^6 cells per well in 12-well plates in IMDM (Iscove's Modified Dulbecco's Media, Invitrogen) with 20% BIT 9500 (BSA, insulin, transferrin) and supplemented with 100 ng/mL of rhTPO. Cells were cultured for 5 days, following which 15d-PGJ2 (10 μM) was added to the culture medium for 24 h. On the sixth day, cells were examined by phase-contrast microscopy using an inverted microscope (Olympus IX81) and images were captured using SPOT RT software (New Hyde Park, N.Y.). Megakaryocytes were identified by preincubating with anti-mouse CD16/32 (FcγR-blocking antibody) and then incubating with PE-conjugated hamster anti-mouse CD41 antibody.
Cells were fixed in 95% ethanol, treated with RNAse (Sigma) followed by 20 μg/mL propidium iodide (Sigma) to stain DNA, and analyzed by flow cytometry.

| PPARγ activation (PPRE-luciferase activity) [2] | SMILES | change in percentage of cells generating mitochondrial superoxide (MitoSOX Red) [1] | change in percentage of cells generating ROS (carboxy-H2DCFDA) [1] | platelet production [3] | levels of circulating platelets on d 4 [4] | megakaryocyte number [5] | percentage of megakaryocytes producing proplatelets ([5]; mice injected 250 μg/kg for three consecutive days, 7 days of culture) | Meg-CFC colony formation compared to vehicle control ([5]; normal mice, 250 μg/kg for three consecutive days, bone marrow plated day 4) | platelet counts ([6]; 250 μg/kg days 1-4, day 4) | platelet counts ([6]; 250 μg/kg days 1-4, days 10 and 16) | primary mouse megakaryocyte ploidy [7] |
| --- | --- | --- | --- | --- | --- | --- | --- | --- | --- | --- | --- |
| activated PPARγ | CCCCC/C=C\C=C1\C(=O)CC[C@@H]1C/C=C\CCCC(=O)O [9,10 dihydro-15d-PGJ2, reference compound] | failed to increase the percentage of cells generating mitochondrial superoxide | failed to increase the percentage of cells generating ROS | failed to enhance platelet production |  |  |  |  |  |  |  |
|  | CCCCC/C=C\C=C1\C(=O)C[C@@H](O)[C@H]1C/C=C\CCCC(=O)O [15d-PGD2, 15-deoxy-Δ^12,14-PG22, reference compound] | failed to increase the percentage of cells generating mitochondrial superoxide | failed to increase the percentage of cells generating ROS | failed to enhance platelet production | significant increase in the levels of circulating platelets |  |  |  |  |  |  |
|  | COC(=O)[C@]12CCC(C)(C)C[C@H]1[C@H]1C(=O)C=C3[C@@]4(C)C=C(C#N)C(=O)C(C)(C)[C@@H]4CC[C@@]3(C)[C@]1(C)CC2 [CDDO-Me, methyl-2-cyano-3,12-dioxooleana-1,9-dien-28-oate] |  |  |  |  | failed to increase megakaryocyte number | significantly augmented the percentage of megakaryocytes producing proplatelets | significantly enhanced Meg-CFC colony formation | increased platelet counts | significantly improved platelet counts | enhanced primary mouse megakaryocyte ploidy |
